Measurements as given in patent US20150307520A1, “NOVEL HETEROARYL AND HETEROCYCLE COMPOUNDS, COMPOSITIONS AND METHODS THEREOF” (HUTCHISON MEDIPHARMA LIMITED, priority 2012, published 2015).

Key:
Assay type in all cases: biochemical
[1] = biological target: p110β/p85α (Homo sapiens, UniProt P42338); experiment: Transcreener KINASE Assay, kinase inhibition of p110β/p85α; settings: for PI3Kβ IH % @ 1 uM: 1 uM test compound; for IC50: read-out: PI3Kβ IC50
Procedure, shortened: (§1)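 Recombinant PI3K/p85α heterodimers were incubated with compound (2% DMSO final) for 80 min at room temperature in 50 mM HEPES, 100 mM NaCl, 1 mM EGTA, 0.03% CHAPS, 3 mM MgCl2, 1 mM DTT, with substrate added as a 30 uM PIP2/10 uM ATP mix. ADP was detected by competitive fluorescence polarization immunoassay.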

[2] = biological target: p110δ/p85α (Homo sapiens, UniProt O00329); experiment: Transcreener KINASE Assay, kinase inhibition of p110δ/p85α; settings: for PI3Kδ IH % @ 1 uM: 1 uM test compound; for IC50: read-out: PI3Kδ IC50
Procedure, shortened: as §1

[3] = biological target: p110γ (Homo sapiens, UniProt P48736); experiment: Transcreener KINASE Assay, kinase inhibition of p110γ; settings: for PI3Kγ IH % @ 1 uM: 1 uM test compound; for IC50: read-out: PI3Kγ IC50
Procedure, shortened: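 Kinase activity is monitored as ADP formation, detected by competitive fluorescence polarization with a far-red tracer. Recombinant isoform complexes react for 80 min at room temperature before a 60 min detection step. IC50 values come from fitted dose-response data.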

Sequence of p110δ/p85α (O00329 whole entry): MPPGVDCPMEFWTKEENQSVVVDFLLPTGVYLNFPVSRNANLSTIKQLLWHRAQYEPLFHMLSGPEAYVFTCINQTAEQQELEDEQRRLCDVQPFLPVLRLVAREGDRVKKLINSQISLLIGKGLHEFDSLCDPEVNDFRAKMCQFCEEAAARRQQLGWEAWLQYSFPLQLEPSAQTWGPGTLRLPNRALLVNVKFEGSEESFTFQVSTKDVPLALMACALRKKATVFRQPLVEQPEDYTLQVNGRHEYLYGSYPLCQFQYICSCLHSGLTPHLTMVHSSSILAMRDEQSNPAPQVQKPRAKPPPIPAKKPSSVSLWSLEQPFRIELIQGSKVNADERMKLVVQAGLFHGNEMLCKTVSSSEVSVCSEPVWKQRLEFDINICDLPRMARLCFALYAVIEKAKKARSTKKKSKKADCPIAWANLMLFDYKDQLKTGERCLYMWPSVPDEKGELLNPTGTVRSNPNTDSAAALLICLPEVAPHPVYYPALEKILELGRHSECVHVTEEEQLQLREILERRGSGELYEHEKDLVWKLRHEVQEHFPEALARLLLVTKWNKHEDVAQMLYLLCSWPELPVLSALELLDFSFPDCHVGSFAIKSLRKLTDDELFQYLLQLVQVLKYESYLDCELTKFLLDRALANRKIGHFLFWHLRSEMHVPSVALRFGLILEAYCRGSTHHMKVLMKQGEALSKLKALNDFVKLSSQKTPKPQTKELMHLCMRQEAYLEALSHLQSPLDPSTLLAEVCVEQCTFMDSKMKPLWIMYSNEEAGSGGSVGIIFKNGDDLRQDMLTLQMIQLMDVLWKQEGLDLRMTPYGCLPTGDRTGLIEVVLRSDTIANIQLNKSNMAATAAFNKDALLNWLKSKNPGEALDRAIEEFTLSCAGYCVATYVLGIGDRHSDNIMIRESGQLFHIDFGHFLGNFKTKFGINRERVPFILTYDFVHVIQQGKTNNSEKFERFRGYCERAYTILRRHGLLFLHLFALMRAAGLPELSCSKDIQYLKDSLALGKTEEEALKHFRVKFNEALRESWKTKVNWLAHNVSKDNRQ
Sequence of p110δ/p85α (P27986 whole entry partner): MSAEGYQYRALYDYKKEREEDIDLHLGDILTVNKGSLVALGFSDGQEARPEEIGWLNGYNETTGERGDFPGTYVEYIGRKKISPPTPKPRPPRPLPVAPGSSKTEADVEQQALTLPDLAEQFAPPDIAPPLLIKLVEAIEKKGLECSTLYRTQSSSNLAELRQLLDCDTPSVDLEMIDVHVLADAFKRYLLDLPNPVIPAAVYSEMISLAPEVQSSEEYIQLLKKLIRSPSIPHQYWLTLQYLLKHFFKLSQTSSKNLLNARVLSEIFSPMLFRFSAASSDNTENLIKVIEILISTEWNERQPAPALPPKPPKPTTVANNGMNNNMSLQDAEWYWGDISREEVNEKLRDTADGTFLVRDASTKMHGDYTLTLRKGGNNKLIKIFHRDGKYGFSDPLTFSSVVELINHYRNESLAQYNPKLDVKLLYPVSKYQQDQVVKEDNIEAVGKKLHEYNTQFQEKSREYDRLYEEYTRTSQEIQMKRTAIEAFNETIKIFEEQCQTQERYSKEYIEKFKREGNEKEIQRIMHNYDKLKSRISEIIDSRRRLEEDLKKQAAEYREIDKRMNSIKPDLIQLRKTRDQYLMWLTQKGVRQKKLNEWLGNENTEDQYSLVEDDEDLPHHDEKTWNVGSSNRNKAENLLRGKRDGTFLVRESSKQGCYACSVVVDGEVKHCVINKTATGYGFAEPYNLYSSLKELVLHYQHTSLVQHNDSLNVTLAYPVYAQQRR
Sequence of p110γ (P48736 whole entry, canonical isoform): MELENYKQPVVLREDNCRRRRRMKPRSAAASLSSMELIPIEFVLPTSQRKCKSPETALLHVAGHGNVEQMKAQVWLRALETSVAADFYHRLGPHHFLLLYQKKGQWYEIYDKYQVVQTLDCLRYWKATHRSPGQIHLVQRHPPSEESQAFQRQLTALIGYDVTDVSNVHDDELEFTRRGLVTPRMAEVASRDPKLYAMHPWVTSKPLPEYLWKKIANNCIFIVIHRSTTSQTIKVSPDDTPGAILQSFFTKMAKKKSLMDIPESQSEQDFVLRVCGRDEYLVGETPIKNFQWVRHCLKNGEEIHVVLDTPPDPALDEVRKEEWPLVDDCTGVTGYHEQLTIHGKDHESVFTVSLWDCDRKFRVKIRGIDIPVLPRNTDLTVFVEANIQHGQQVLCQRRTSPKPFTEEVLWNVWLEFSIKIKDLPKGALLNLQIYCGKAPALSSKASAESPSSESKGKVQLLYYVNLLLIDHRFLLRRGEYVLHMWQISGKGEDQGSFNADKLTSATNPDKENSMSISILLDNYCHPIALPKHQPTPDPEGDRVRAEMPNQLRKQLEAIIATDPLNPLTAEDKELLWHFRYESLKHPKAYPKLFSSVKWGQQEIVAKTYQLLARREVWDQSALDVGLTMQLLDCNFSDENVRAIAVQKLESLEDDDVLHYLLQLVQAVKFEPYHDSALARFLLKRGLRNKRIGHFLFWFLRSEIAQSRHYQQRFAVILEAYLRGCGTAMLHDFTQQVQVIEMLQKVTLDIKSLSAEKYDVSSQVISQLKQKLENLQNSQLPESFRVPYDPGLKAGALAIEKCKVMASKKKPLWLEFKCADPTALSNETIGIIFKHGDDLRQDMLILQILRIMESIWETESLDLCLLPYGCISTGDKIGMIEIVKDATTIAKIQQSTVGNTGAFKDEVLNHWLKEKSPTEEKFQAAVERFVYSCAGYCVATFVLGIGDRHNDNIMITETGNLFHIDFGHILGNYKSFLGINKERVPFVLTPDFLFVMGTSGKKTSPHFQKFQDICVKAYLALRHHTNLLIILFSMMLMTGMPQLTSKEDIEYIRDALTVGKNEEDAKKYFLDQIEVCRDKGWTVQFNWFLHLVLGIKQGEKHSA
Sequence of p110β/p85α (P42338 whole entry): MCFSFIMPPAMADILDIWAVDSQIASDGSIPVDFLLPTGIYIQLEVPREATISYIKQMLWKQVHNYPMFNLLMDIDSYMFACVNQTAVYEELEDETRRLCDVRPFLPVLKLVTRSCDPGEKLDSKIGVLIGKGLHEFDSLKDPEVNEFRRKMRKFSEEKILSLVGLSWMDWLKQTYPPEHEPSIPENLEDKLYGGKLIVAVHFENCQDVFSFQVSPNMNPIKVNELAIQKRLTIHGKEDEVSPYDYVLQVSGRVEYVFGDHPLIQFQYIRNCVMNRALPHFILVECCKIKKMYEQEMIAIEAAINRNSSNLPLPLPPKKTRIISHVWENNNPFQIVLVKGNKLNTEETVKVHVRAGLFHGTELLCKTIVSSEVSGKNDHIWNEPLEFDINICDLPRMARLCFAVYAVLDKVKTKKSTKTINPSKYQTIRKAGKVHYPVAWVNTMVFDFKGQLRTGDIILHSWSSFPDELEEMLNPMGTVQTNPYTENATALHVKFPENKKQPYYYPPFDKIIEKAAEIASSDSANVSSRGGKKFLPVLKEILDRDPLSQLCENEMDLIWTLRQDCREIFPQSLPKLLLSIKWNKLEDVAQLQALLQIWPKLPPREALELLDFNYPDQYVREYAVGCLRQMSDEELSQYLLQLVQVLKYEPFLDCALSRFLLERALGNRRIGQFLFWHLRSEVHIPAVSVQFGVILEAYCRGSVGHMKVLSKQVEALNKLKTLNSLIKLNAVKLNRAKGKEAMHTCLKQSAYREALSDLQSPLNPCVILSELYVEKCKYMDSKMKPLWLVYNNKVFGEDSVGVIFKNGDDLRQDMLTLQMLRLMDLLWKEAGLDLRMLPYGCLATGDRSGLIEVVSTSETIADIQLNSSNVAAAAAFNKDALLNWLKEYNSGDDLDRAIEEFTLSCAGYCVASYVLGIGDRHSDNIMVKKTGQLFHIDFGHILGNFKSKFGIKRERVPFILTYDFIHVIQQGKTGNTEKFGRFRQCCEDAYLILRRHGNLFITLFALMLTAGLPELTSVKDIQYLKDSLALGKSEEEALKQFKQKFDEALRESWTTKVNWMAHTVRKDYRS
Sequence of p110β/p85α (P27986 2-724 partner): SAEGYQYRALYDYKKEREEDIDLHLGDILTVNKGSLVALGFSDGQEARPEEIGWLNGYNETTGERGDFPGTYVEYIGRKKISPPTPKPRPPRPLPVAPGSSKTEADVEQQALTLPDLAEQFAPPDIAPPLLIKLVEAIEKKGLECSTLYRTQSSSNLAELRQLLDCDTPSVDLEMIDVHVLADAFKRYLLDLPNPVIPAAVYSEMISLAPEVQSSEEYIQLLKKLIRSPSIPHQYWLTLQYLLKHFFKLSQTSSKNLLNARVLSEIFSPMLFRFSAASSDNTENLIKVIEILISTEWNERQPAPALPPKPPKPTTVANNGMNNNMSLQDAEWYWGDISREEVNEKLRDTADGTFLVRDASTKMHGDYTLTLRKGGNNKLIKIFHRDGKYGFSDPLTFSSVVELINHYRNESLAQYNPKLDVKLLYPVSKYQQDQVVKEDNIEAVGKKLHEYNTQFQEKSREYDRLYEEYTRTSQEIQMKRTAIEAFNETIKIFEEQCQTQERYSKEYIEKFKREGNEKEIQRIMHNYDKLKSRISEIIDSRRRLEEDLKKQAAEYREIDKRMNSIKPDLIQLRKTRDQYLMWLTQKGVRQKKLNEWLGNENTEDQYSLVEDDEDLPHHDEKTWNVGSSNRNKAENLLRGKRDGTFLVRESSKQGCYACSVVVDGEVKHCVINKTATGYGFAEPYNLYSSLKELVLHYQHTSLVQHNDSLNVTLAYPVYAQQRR

SMILES	PI3Kβ IH % @ 1 uM [1]	PI3Kδ IH % @ 1 uM [2]	IC50 [2]	PI3Kγ IH % @ 1 uM [3]	IC50 [3]	IC50 [1]
N#Cc1c[nH]c2ncnc(N3CC[C@H]3c3nn4ccc(Br)c4c(=O)n3-c3ccccc3)c12 [Compound 55]	23.8%	97.6%	8 nM	99.5%	67 nM	
C[S+]([O-])c1c[nH]c2ncnc(N3CCC[C@H]3c3nn4ccc(F)c4c(=O)n3-c3ccccc3)c12 (some centres unmarked) [Compound 219]	75.1%	98.4%	3 nM	87.4%	14 nM	358 nM
N#Cc1c[nH]c2ncnc(N3C[C@@H](O)C[C@H]3c3nn4ccc(Cl)c4c(=O)n3-c3ccccc3)c12 [Compound 71]	>100%	>100%	1 nM	>100%	9 nM	31 nM
COCc1ccn2nc([C@@H]3CCCN3c3nc(N)ncc3C(F)(F)F)n(-c3ccccc3)c(=O)c12 [Compound 151]	11.4%	52.4%		22.8%		
N#Cc1c[nH]c2ncnc(N3CC(F)(F)C[C@H]3c3nn4ccc(Cl)c4c(=O)n3-c3ccccc3)c12 [Compound 58]	45.5%	>100%	5 nM	97.6%	73 nM	
N#Cc1cccc(-n2c([C@@H]3CCCN3c3ncnc4[nH]cnc34)nn3ccc(Cl)c3c2=O)c1 [Compound 40]	19.8%	74.0%		6.5%		
Nc1ncc(F)c(N2CCC[C@H]2c2nn3ccc(Cl)c3c(=O)n2-c2ccccc2)n1 [Compound 215]	32.8%	98.5%	52 nM	88.1%	135 nM	
N#Cc1c[nH]c2ncnc(N3CCC[C@H]3c3nn4ccc(Cl)c4c(=O)n3CC(F)(F)F)c12 [Compound 67]	71.3%	98.1%	7 nM	61.0%		188 nM
N#Cc1c[nH]c2ncnc(N3CCOCC3c3nn4ccc(Cl)c4c(=O)n3-c3ccccc3)c12 (centres unmarked) [Compound 152]	54.4%	99.2%	5 nM	79.3%	287 nM	
NC(=O)c1ccn2nc([C@@H]3CCCN3c3ncnc4[nH]cnc34)n(-c3ccccc3)c(=O)c12 [Compound 139, (S)-2-(1-(9H-purin-6-yl)pyrrolidin-2-yl)-4-oxo-3-phenyl-3,4-dihydropyrrolo[2,1-f][1,2,4]triazine-5-carboxamide]	18.0%	64.8%		46.5%		
O=c1c2c(Cl)ccn2nc([C@@H]2CC(F)(F)CN2c2ncnc3[nH]cnc23)n1Cc1ncccn1 [Compound 161]	15.3%	45.7%		−8.4%		
COCc1ccn2nc([C@@H]3CCCN3c3ncnc4[nH]cc(C#N)c34)n(-c3ccccc3)c(=O)c12 [Compound 150]	31.5%	>100%	3 nM	92.6%	92 nM	
CC(Nc1ncnc2[nH]cnc12)c1cn2cccc2c(=O)n1-c1ccccc1 (centres unmarked) [Compound 83]	42.7%	97.3%		78.6%	309 nM	
O=c1c2c(F)ccn2nc([C@@H]2CCCN2c2ncnc3[nH]cnc23)n1-c1cccc(F)c1 [Compound 191]	56.8%	>100%	3 nM	>100%	32 nM	
CC(Nc1ncnc2[nH]cc(C#N)c12)c1cn2cccc2c(=O)n1-c1ccccc1 (centres unmarked) [Compound 82]	56.4%	98.7%		78.6%	194 nM	

Continued, values first:

PI3Kβ IH % @ 1 uM [1]	PI3Kδ IH % @ 1 uM [2]	IC50 [2]	PI3Kγ IH % @ 1 uM [3]	IC50 [3]	IC50 [1]	SMILES
52.6%	100.0%	3 nM	77.2%	423 nM		O=c1c2c(F)ccn2nc([C@@H]2CCCN2c2ncnc3[nH]cnc23)n1-c1ccccn1 [Compound 313]
88.8%	97.1%		93.4%	11 nM	18 nM	O=c1c2c(Cl)ccn2nc([C@@H]2C[C@H](O)CN2c2ncnc3[nH]cnc23)n1-c1ccccc1 [Compound 262]
		3 nM		29 nM	199 nM	O=C1C[C@@H](c2nn3ccc(Cl)c3c(=O)n2-c2ccccc2)N(c2ncnc3[nH]cnc23)C1 [Compound 381]
24.8%	99.3%	8 nM	98.0%	29 nM		Nc1nc2c(c(N3CCC[C@H]3c3nn4ccc(F)c4c(=O)n3-c3ccccc3)n1)C(=O)CCN2 [Compound 249]
4.2%	96.4%		40.5%			CC(Nc1ncnc2[nH]cc(F)c12)c1cc2ncc(Cl)n2c(=O)n1-c1ccccc1 (single isomer, unassigned) [Compound 451]
22.6%	99.1%	25 nM	>100%	18 nM		CC(=O)c1c(C)nc(N)nc1N1CC[C@H]1c1nn2ccc(Cl)c2c(=O)n1-c1ccccc1 [Compound 398]
46.7%	>100%	4 nM	67.8%	189 nM		N#Cc1cnc(N)nc1N1CC(=O)C[C@H]1c1nn2ccc(F)c2c(=O)n1-c1ccccc1 [Compound 401]
89.6%	>100%	1 nM	95.5%	3 nM	81 nM	N#Cc1cnc(N)nc1N1C[C@@H](C#N)C[C@H]1c1nn2ccc(Cl)c2c(=O)n1-c1ccccc1 [Compound 351]
76.9%	98.8%	7 nM	>100%	21 nM	239 nM	CC(=O)c1c[nH]c2ncnc(NC(C)c3cn4ccc(Cl)c4c(=O)n3-c3ccccc3)c12 (centres unmarked) [Compound 272]
50.4%	88.3%	102 nM	56.3%			CN(C)CCn1c([C@@H]2CCCN2c2ncnc3[nH]cnc23)nn2ccc(Cl)c2c1=O [Compound 251]
68.8%	>100%	2 nM	90.4%	3 nM	242 nM	CC(=O)c1cnc(N)nc1N1CCC[C@H]1c1nn2ccc(Cl)c2c(=O)n1-c1ccccc1 [Compound 369, (S)-2-(1-(5-acetyl-2-aminopyrimidin-4-yl)pyrrolidin-2-yl)-5-chloro-3-phenylpyrrolo[2,1-f][1,2,4]triazin-4(3H)-one]
40.5%	43.0%		88.1%	21 nM		CSc1n[nH]c2ncnc(N3CC[C@H]3c3nn4ccc(Cl)c4c(=O)n3-c3ccccc3)c12 [Compound 222]
−23.5%	7.1%		50.7%			Nc1ncc(C(=O)C2CC2)c(N2CC[C@H]2c2nn3ccc(Cl)c3c(=O)n2-c2ccccc2)n1 [Compound 326]
20.1%	85.8%	319 nM	40.0%			CC(=O)c1cnc(N)nc1N1CC(=O)C[C@H]1c1nn2ccc(F)c2c(=O)n1-c1ccccc1 [Compound 446]
35.2%	94.7%	9 nM	90.7%	9 nM		C[S@@+]([O-])c1c[nH]c2ncnc(N3C[C@@H](F)C[C@H]3c3nn4ccc(Cl)c4c(=O)n3-c3cccc(F)c3)c12 [Compound 393, 5-chloro-2-((2S,4S)-4-fluoro-1-(5-((R)-methylsulfinyl)-7H-pyrrolo[2,3-d]pyrimidin-4-yl)pyrrolidin-2-yl)-3-(3-fluorophenyl)pyrrolo[2,1-f][1,2,4]triazin-4(3H)-one]
73.9%	>100%	5 nM	96.9%	68 nM	463 nM	CC(=O)c1c[nH]c2ncnc(NC(C)c3cc4ncc(Cl)n4c(=O)n3-c3ccccc3)c12 (centres unmarked) [Compound 287]
		1 nM		4 nM	39 nM	CC(Nc1nc(N)nc2c1C(=O)CCN2)c1cc2ncc(Cl)n2c(=O)n1-c1ccccc1 (centres unmarked) [Compound 290]
40.7%	>100%	34 nM	97.2%	11 nM		C[S+]([O-])c1n[nH]c2ncnc(N3CCC[C@H]3c3nn4ccc(Cl)c4c(=O)n3-c3ccccc3)c12 (stereo partly drawn) [Compound 352, 5-chloro-2-((2S)-1-(3-(methylsulfinyl)-1H-pyrazolo[3,4-d]pyrimidin-4-yl)pyrrolidin-2-yl)-3-phenylpyrrolo[2,1-f][1,2,4]triazin-4(3H)-one]
33.4%	99.1%	22 nM	95.8%	45 nM		Nc1nc2c(c(N3C[C@@H](F)C[C@H]3c3nn4ccc(F)c4c(=O)n3-c3ccccc3)n1)C(=O)CCN2 [Compound 250]
